1 compound from patent US7012089B2, “[1,4]Diazocino[7,8,1-hi]indole derivatives as antipsychotic and antiobesity agents” (Wyeth, priority 2002, dated 2006) can be followed below.

Each structure is given as a SMILES string.

For data set [1], the target named is T1, human 5-hydroxytryptamine-2C (h-5-HT2C) receptor (Homo sapiens, UniProt P28335).
T1 sequence (P28335 33-458): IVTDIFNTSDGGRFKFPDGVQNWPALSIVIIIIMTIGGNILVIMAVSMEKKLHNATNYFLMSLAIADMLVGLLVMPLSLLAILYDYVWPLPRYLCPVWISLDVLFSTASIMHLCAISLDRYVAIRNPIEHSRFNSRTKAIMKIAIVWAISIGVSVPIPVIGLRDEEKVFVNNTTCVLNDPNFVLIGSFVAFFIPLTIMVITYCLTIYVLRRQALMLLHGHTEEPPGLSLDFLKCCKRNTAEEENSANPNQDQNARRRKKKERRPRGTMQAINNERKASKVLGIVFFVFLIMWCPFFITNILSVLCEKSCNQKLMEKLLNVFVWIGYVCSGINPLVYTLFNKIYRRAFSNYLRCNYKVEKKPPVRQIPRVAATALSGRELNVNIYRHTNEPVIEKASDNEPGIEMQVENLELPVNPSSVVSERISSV
As to the kind of experiment: [125I]DOI binding to membranes of CHO cells expressing the h-5-HT2C receptor. Particulars: 5-HT2c Affinity KI (nM), displacement of [125I]DOI, CHO cell membranes. (In general: Loss of bound radioactivity is the signal in a displacement assay; it reports binding, not function.)

The target of data set [2] is T2, human 5-HT2C receptor (Homo sapiens, UniProt P28335).
T2 sequence (P28335 33-458): T1 sequence (P28335 33-458)
Briefly: 5-HT2C receptor-stimulated calcium mobilization (FLIPR) in CHO cells. Format: cell-based.

By Ki is commonly meant a measure of affinity in units of concentration, obtained from inhibition or displacement. Usually melting point stands for the temperature, or range, at which the solid turns liquid. As usually defined, the EC50 is the midpoint of the concentration-response curve. Broadly, the Emax is the maximal effect, on the per cent scale that the assay sets. The compound `CN1CCc2cccc3c4c(n(c23)CC1)CCCC4` [Example 5] showed a melting point of 129 to 131 °C. Also, in data set [1], the affinity corresponds to a Ki of 10 nM. Besides, the concentration giving a half-maximal response (EC50) in data set [2] was found to be 0.068 µM. The Emax in data set [2] (CHO, read-out: 5-HT2C Function Emax (%)) is 50%.
